The source of these data is the METLIN SMRT retention time set (Domingo-Almenara et al. 2019).

A short description of this series: gradient 5% acetonitrile 3 min, to 50% in 2 min, to 85% in 15 min, held 3 min, 100 µL/min. The settings on record: column: Zorbax Extend-C18 2.1 x 50 mm; eluents: water / acetonitrile, 0.1% formic acid. The method, boiled down: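 Pure standards were analyzed in mixtures of ~100 molecules using HPLC coupled to a quadrupole time-of-flight mass spectrometer, in both positive and negative ionization mode. Separation used a Zorbax Extend-C18 column (2.1 × 50 mm, 1.8 μm) at 100 μL/min, with water and acetonitrile each containing 0.1% formic acid. Dead and dwell volumes were 40 μL and 900 μL, and data were collected over 3 months. Retention time was read from computationally picked adduct peaks, each inspected manually.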
In turn, `O=C(CN1CCN(c2ccccn2)CC1)N1c2ccccc2Sc2ccccc21` came in with an RP-LC retention time of 652 s.

As for `CCCN1CCn2cc(S(=O)(=O)Nc3cccc(C)c3)cc2C1=O`, the RP-LC retention time stood at 777 s.

As to `O=C(Cn1cnc2nc(N3CCCC(C(=O)NC4CC4)C3)sc2c1=O)Nc1ccc(F)c(F)c1` (stereo not given), the RP-LC retention time came out at 705 s.

Take `CCc1ccc(-c2noc(Cn3c(=O)n(-c4ccccc4)c(=O)c4sccc43)n2)cc1`: the RP-LC retention time turned out to be 1090 s.

Compound `CCN1CCCn2cc(S(=O)(=O)Nc3ccc(C)cc3Cl)cc2C1=O` gave an RP-LC retention time of 775 s.

`CC1CCCN(CCCNC(=O)c2cccc3c2SCCC3=O)C1` (stereo not given): the RP-LC retention time turned out to be 590 s.

In turn, `CCOC(=O)c1ccc(NC2=NS(=O)(=O)C(c3ccc(F)cc3)=C2C)cc1` yielded an RP-LC retention time of 948 s.

Turning to `CCN1CCC(n2cc(CNc3cc(Cl)c4ncc(C#N)c(Nc5ccc(F)c(Cl)c5)c4c3)nn2)CC1`, the RP-LC retention time turned out to be 727 s.

`COc1cccc(C(=O)Nc2nc(-c3ccc4c(c3)NC(=O)C(C)O4)c(C)s2)c1` (stereo not given) gave an RP-LC retention time of 964 s.

Consider `CCCCN1CC(=O)N(c2ccc(OC)cc2)[C@@H]2CS(=O)(=O)C[C@@H]21`, for which the RP-LC retention time turned out to be 719 s.

`Cc1cc(NC(=O)C2CCCN(c3ccc(=O)n(-c4cccc(F)c4)n3)C2)ccc1Br` (stereo not given) registered an RP-LC retention time of 1050 s.

Compound `CCNC(=O)N1[C@H]2CC[C@@H]1c1cnc(-c3ccccc3)nc1C2` returned an RP-LC retention time of 735 s.

`COc1cccc(NC(=O)C2CCN(S(=O)(=O)c3cn(C)cn3)CC2)c1`: the RP-LC retention time is 656 s.

For the compound `Cc1ccc(F)c2c(=O)c3c([nH]c12)CCN(CC(=O)NC1CCCC1)C3`, the RP-LC retention time was 669 s.

`Cc1ccc(C2C(S(=O)(=O)c3ccc(C)cc3)=C(O)C(=O)N2Cc2ccco2)cc1` (stereo not given) had an RP-LC retention time of 976 s.

Compound `O=C(NCc1cc(-c2ccc3c(c2)OCO3)on1)c1cc(=O)c2ccccc2o1` had an RP-LC retention time of 758 s.

`CC(=O)c1ccc(NC(=O)c2cccc(N3C(=O)NC4CC3(C)Oc3ccccc34)c2)cc1` (stereo not given): the RP-LC retention time came out at 815 s.

The compound `Cc1ccc(-c2nc(-c3cccc(-c4ccn[nH]4)c3)no2)cc1` displayed an RP-LC retention time of 1090 s.

For the compound `Cc1nc(-c2ccccc2)cc2nn(CC(=O)Nc3ccc(F)cc3Cl)c(=O)n12`, the RP-LC retention time is 967 s.

Regarding `COC(=O)C(NC(=O)N1CCCn2nc(-c3cccnc3)cc2C1)c1ccccc1` (stereo not given), the RP-LC retention time was 616 s.

Regarding `CCc1cccc(NC(=O)Cn2c(C)nc3onc(C)c3c2=O)c1`, the RP-LC retention time is 861 s.

The compound `CC(C)Sc1ccc(CC(=O)NCC2(O)CCCC2)cc1` showed an RP-LC retention time of 752 s.

As for `COc1ccc(NC(=O)c2ccc(N3C(=O)CCC3=O)cc2)c2ccccc12`, the RP-LC retention time stood at 691 s.

In turn, `Cc1ccc(NC(=O)C2CCCN(c3cn[nH]c(=O)c3)C2)cc1` (stereo not given) gave an RP-LC retention time of 679 s.

For `Cc1nn2c(CNS(=O)(=O)c3ccccc3Cl)c(-c3ccccc3)nc2s1`, the RP-LC retention time was 853 s.

The compound `Cc1nnc2c(=O)n(CC(=O)NCc3ccccc3C(F)(F)F)c3cccnc3n12` yielded an RP-LC retention time of 734 s.

In the case of `O=C(Cc1ccccc1)NCC(=O)NC(C(=O)N1CCCc2ccccc21)c1ccccc1` (stereo not given), the RP-LC retention time amounted to 875 s.

For `O=C(CCc1ccc2[nH]ccc2c1)NCc1ccc(F)cc1`, the RP-LC retention time amounted to 793 s.

Take `CCNC(=O)C1c2ccccc2C(=O)N(CC(C)C)C1c1cccs1` (stereo not given): the RP-LC retention time amounted to 818 s.

`O=C(N1CCCC1)N1CCN(c2ccccc2F)CC1` came in with an RP-LC retention time of 762 s.

Regarding `CCc1nc2cc(-c3noc(Cc4ccccc4Br)n3)ccc2o1`, the RP-LC retention time was 1220 s.

`COc1ccc(OC)c(NC(=O)Cn2cccc(-c3nc(-c4ccc(OC)c(OC)c4)no3)c2=O)c1` had an RP-LC retention time of 810 s.

Turning to `Cc1ccc(Cl)cc1NC(=O)C1CCCN(c2nc3ccccc3nc2C(F)(F)F)C1` (stereo not given), the RP-LC retention time came to 1350 s.

The compound `COc1cccc2[nH]c(C(=O)NCCC(=O)NCCc3c[nH]c4ccccc34)cc12` yielded an RP-LC retention time of 662 s.

Turning to `CCS(=O)(=O)N1CCCCCC1c1ccccc1Cl` (stereo not given), the RP-LC retention time amounted to 1090 s.

For `O=C(NCCc1ccccn1)C1CCN(c2cnn(Cc3ccccc3)c(=O)c2)CC1`, the RP-LC retention time was determined as 594 s.

In turn, `CC(C)NC(=O)c1ccc(-c2ccc(N3CCSCC3)nc2)cc1` showed an RP-LC retention time of 663 s.

In the case of `O=C(Cc1nnc(-c2cccc(F)c2)o1)NCC1CC1`, the RP-LC retention time came out at 722 s.

For `CNC(=O)C1CCCN(S(C)(=O)=O)CCC(=O)NCC1` (stereo not given), the RP-LC retention time came to 539 s.

In the case of `Cc1cccc(CNS(=O)(=O)c2ccc(-c3c(C)noc3C)cc2)c1`, the RP-LC retention time turned out to be 983 s.

Consider `CCCN1C(=O)c2cc(S(=O)(=O)N3CCOCC3)ccc2Oc2cccnc21`, for which the RP-LC retention time came to 926 s.

`O=C(NCc1ccc2c(c1)OCO2)C(=O)c1cn(CC(=O)N2CCOCC2)c2ccccc12` came in with an RP-LC retention time of 804 s.

`CC1CCN(C(=O)c2cn(-c3cc(N4CCC(C)CC4)ncn3)cn2)CC1`: the RP-LC retention time was determined as 1030 s.

Regarding `COc1ccc2c(Oc3ccc(NC(=O)c4c(C)n(CC(C)(C)O)n(-c5ccccc5)c4=O)nc3)ccnc2c1`, the RP-LC retention time turned out to be 707 s.

As for `CCOC(=O)CCC(=O)Nc1nnc(-c2cc(C)oc2C)o1`, the RP-LC retention time amounted to 683 s.

For the compound `CCCn1cnc2cc(CNC(=O)c3cccc(C(F)(F)F)c3)ccc21`, the RP-LC retention time was determined as 690 s.

`COCCCNC(=O)c1nc(Nc2ccc(C)cc2)c2ccccc2n1`: the RP-LC retention time stood at 709 s.

The compound `O=C(NCc1nnnn1-c1ccc(Cl)cc1)c1ccc(S(=O)(=O)N2CCCC2)cc1` registered an RP-LC retention time of 773 s.

Turning to `Cc1nn(-c2ccccc2)c(C)c1S(=O)(=O)N1CCC(C(=O)Nc2ccc(F)cc2)CC1`, the RP-LC retention time worked out at 948 s.

For `CCN(CC)C(=O)N1CC(Oc2ccc(-c3noc(COC)n3)cc2)C1`, the RP-LC retention time was 845 s.

Compound `N#CCCN(c1ccc(C=O)cc1)S(=O)(=O)c1ccccc1` showed an RP-LC retention time of 770 s.

Regarding `O=C(Cc1ccc(Cl)cc1)N1CCN(c2nnc3ccccn23)CC1`, the RP-LC retention time stood at 663 s.

In turn, `COc1ccc(CNC(=O)c2[nH]c3cc(C)sc3c2CN2CCCC2)cc1` displayed an RP-LC retention time of 679 s.

With `CN1C(=O)COc2cc(-c3noc(C(=O)NCC4CCCO4)n3)ccc21` (stereo not given), the RP-LC retention time was 702 s.

Compound `Cc1nc(N2CCN(c3ccccn3)CC2)nc2c1C(=O)CC(c1cccc(Cl)c1)C2` (stereo not given) registered an RP-LC retention time of 838 s.

`CCCS(=O)(=O)NCc1ccc2c(c1)CCN2C(=O)CC` came in with an RP-LC retention time of 686 s.

`CC(C)CCNC(=O)c1nnc(-c2ccc(S(=O)(=O)N3CCOCC3)cc2)o1` returned an RP-LC retention time of 851 s.

`Cc1ccc(S(=O)(=O)N2c3ccccc3NC3=C(C(=O)CCC3)C2c2ccco2)cc1` (stereo not given) gave an RP-LC retention time of 837 s.

`CN(C)C(=O)c1ccc2c(c1)nc(CN1CCN(C(=O)NC3CCCCC3)CC1)n2C` had an RP-LC retention time of 565 s.

Compound `CCCNS(=O)(=O)c1cc(-c2[nH]ncc2C(=O)N(C)C)oc1C` showed an RP-LC retention time of 608 s.

Compound `Cn1nccc1-c1cccc(-c2noc(-c3ccsc3)n2)c1` gave an RP-LC retention time of 1020 s.

`Cc1cc(N2CCN(C(=O)C3CCC3)CC2)nc2nncn12` returned an RP-LC retention time of 566 s.

`CN1CCN(S(=O)(=O)c2cccc(C#N)c2)CC1c1ccc(F)cc1` (stereo not given) registered an RP-LC retention time of 579 s.

Compound `CCOC(=O)C1C(=O)NC(N2CCc3ccccc32)=NC1c1ccco1` (stereo not given) displayed an RP-LC retention time of 690 s.

Turning to `Cn1nc2n(c1=O)CCN(S(=O)(=O)Cc1ccccc1)CC2`, the RP-LC retention time was found to be 659 s.

`O=c1c2nc(-c3ccccc3)cn2ccn1-c1cccc(Cl)c1` registered an RP-LC retention time of 852 s.

`COC(=O)c1cc(C2CC2)nc2c1c(=O)n(Cc1ccccc1Cl)c(=O)n2C` yielded an RP-LC retention time of 1130 s.

For the compound `Cc1cc(C)cc(NC(=O)N2C[C@@H](F)C[C@H]2C(=O)N2CCc3ccccc3C2)c1`, the RP-LC retention time turned out to be 879 s.

In the case of `CCOc1ccc(CNC(=S)Nc2ccc3nc(N4CCN(C)CC4)cc(C)c3c2)cc1`, the RP-LC retention time worked out at 614 s.

In the case of `CSc1ccc(-c2noc(CN3C(=O)COc4ccc(C(C)(C)C)cc43)n2)cc1`, the RP-LC retention time stood at 1300 s.

Consider `CCCCC(=O)Nc1cc(C(=O)O)ccc1N(C)CC1COCCO1` (stereo not given), for which the RP-LC retention time was determined as 756 s.

The compound `CCn1c(C(=O)NCCN2CCCCCC2)c(N2CCCC2=O)c2cc(F)ccc21` registered an RP-LC retention time of 664 s.

With `CN1C(=O)c2cc(C(=O)NCCCN3CCCC3)nn2CC1(C)C(=O)NCc1ccc(F)cc1` (stereo not given), the RP-LC retention time turned out to be 585 s.

`COc1cc(OC)cc(-c2nc(Cn3cnc4ccccc4c3=O)no2)c1`: the RP-LC retention time came out at 871 s.

As for `COc1cc(C(=O)Nc2ncc(Cc3cccc4ccccc34)s2)cc(OC)c1OC`, the RP-LC retention time was found to be 1030 s.

In turn, `CC1(c2nc(C3CC3)no2)CCCN(C(=O)c2ccc3nc[nH]c3c2)C1` (stereo not given) showed an RP-LC retention time of 595 s.

Turning to `Cc1ccc(NC(=O)N2CCC3(CC2)NC(=O)c2ccccc2O3)cc1F`, the RP-LC retention time is 799 s.

With `CCCC(=O)Nc1ccc(-c2nc(Cn3nc(C)cc3C)c(C)o2)cc1`, the RP-LC retention time came out at 818 s.

Compound `CCc1ccc(NC(=O)c2ccc(=O)n(CCN3CCCC3)c2)cc1` showed an RP-LC retention time of 650 s.

`O=C(Nc1cc(-c2ccccn2)no1)c1ccc(Cl)cc1` registered an RP-LC retention time of 864 s.
